Each structure is given as a SMILES string.

The first assay concerns the target T1, RORc ligand binding domain (Homo sapiens, UniProt P51449).
T1 construct: host or cells: E. coli
T1 sequence (P51449 269-508 limits assumed): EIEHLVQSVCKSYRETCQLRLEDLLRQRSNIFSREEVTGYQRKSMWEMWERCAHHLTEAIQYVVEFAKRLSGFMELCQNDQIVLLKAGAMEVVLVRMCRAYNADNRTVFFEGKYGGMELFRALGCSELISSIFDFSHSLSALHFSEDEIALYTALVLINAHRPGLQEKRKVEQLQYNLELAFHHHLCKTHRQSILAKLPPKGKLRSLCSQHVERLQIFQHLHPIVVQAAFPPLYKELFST
The assay is described as follows: In Vitro RORc Ligand Binding Assay (25-[3H]hydroxycholesterol radioligand filtration). Conditions: In Vitro RORc Ligand Binding Assay; Table 4; read-out: RORc IC50.
One may read the IC50 as the concentration needed to halve the response being measured. Regarding `CC(=O)N1CCN(c2ccc(CN3CCC(C)CC(c4ccccc4)S3(=O)=O)c(F)c2)CC1` (single isomer, unassigned) [Example 332, 1-{4-[3-Fluoro-4-(5-methyl-1,1-dioxo-7-phenyl-[1,2]thiazepan-2-ylmethyl)-phenyl]-piperazin-1-yl}-ethanone], the concentration for half-maximal inhibition (IC50) worked out at 71 nM.
On to `CC(=O)N1CCN(c2ccc(CN3CC(C)CCC(c4ccccc4)S3(=O)=O)c(F)c2)CC1` (single isomer, unassigned) [Example 339, 1-{4-[3-Fluoro-4-(4-methyl-1,1-dioxo-7-phenyl-[1,2]thiazepan-2-ylmethyl)-phenyl]-piperazin-1-yl}-ethanone], for which the IC50 came out at 15 nM.
Same read-out and setting: for `C[C@H]1CCC(c2ccccc2)S(=O)(=O)N1Cc1ccc(N2CCC(n3ccnc3)CC2)cc1F` (stereo partly drawn) [Example 217, (3S)-2-[2-Fluoro-4-(4-imidazol-1-yl-piperidin-1-yl)-benzyl]-3-methyl-6-phenyl-[1,2]thiazinane 1,1-dioxide] the value was 11 nM; for `COc1ccc(C2CC[C@H](C)N(Cc3ccc(N4CCN(C(C)=O)CC4)cc3F)S2(=O)=O)cc1` (single isomer, unassigned) [Example 177], 147 nM; for `C[C@H]1CCC(c2ccccc2)S(=O)(=O)N1Cc1ccc(C(=O)NC2CN(S(C)(=O)=O)C2)cc1` (stereo partly drawn) [Example 387, N-(1-Methanesulfonyl-azetidin-3-yl)-4-((3S)-methyl-1,1-dioxo-6-phenyl-[1,2]thiazinan-2-ylmethyl)-benzamide], 607 nM.
Turning to `C[C@H]1CCC(c2ccccc2)S(=O)(=O)N1Cc1ccc(N2CCC(S(=O)(=O)N(C)C)CC2)cc1F` (single isomer, unassigned) [Example 103], the half-inhibitory concentration (IC50) came to 146 nM.
On to `C[C@@H]1CC(c2ccccc2)S(=O)(=O)N(Cc2ccc(N3CCC(n4cnnc4)CC3)cc2F)C1` (stereo partly drawn) [Example 265, 2-[2-Fluoro-4-(4-[1,2,4]triazol-4-yl-piperidin-1-yl)-benzyl]-(4R)-methyl-6-phenyl-[1,2]thiazinane 1,1-dioxide], for which the IC50 came to 66 nM.
On the same count and under the same terms, the value for `CC(=O)N1CCN(c2ccc(CN3CC(C)(C)CC(c4ccccc4)S3(=O)=O)c(F)c2)CC1` (single isomer, unassigned) [Example 171, 1-{4-[4-(4,4-Dimethyl-1,1-dioxo-6-phenyl-[1,2]thiazinan-2-ylmethyl)-3-fluoro-phenyl]-piperazin-1-yl}-ethanone] was 200 nM.
Still for that read-out and setting: for `CC(=O)N1CCN(c2cnc(CN3[C@@H](C)CCC(c4ccccc4)S3(=O)=O)cn2)CC1` (single isomer, unassigned) [Example 178] the value was 1430 nM.
On the same count and under the same terms, the value for `CC(=O)N1CCN(c2ccc(CN3[C@H](C)CCC(c4ccccc4)S3(=O)=O)cn2)CC1` (single isomer, unassigned) [Example 48] was 1500 nM; that for `CC(=O)N1CCN(c2ccc(CN3C(C)(C)CCC(c4ccccc4)S3(=O)=O)c(F)c2)CC1` (single isomer, unassigned) [Example 14, 1-{4-[4-(3,3-Dimethyl-1,1-dioxo-6-phenyl-[1,2]thiazinan-2-ylmethyl)-3-fluoro-phenyl]-piperazin-1-yl}-ethanone] was 1900 nM.
Consider `C[C@H]1CCC(c2ccccc2)S(=O)(=O)N1Cc1ccc(N2CCC(c3nnco3)CC2)cc1F` (stereo partly drawn) [Example 210, (3S)-2-[2-Fluoro-4-(4-[1,3,4]oxadiazol-2-yl-piperidin-1-yl)-benzyl]-3-methyl-6-phenyl-[1,2]thiazinane 1,1-dioxide], for which the IC50 came out at 38 nM.
The same measure, in the same setting: for `CC(=O)N1CCN(c2ccc(CN3CCCC(c4ccccc4)S3(=O)=O)c(F)c2)CC1` (single isomer, unassigned) [Example 1] the value was 247 nM; for `C[C@H](O)C(=O)N1CCCN(c2ccc(CN3[C@@H](C)CCC(c4ccccc4)S3(=O)=O)c(F)c2)CC1` (single isomer, unassigned) [Example 93], 49 nM; for `CNC(=O)C1CN(C(=O)c2ccc(CN3[C@@H](C)CCC(c4ccccc4)S3(=O)=O)cc2)CCO1` (stereo partly drawn) [Example 299, 4-[4-((3S)-Methyl-1,1-dioxo-6-phenyl-[1,2]thiazinan-2-ylmethyl)-benzoyl]-morpholine-2-carboxylic acid methylamide], 4930 nM.
As to `CC(=O)N1CCN(c2ccc(CN3C[C@@H](C)CC(c4ccccc4)S3(=O)=O)c(F)c2)CC1` (single isomer, unassigned) [Example 198], the IC50 stood at 19 nM.
On the same count and under the same terms, the value for `C[C@H]1CCC(c2ccccc2)S(=O)(=O)N1Cc1ccc(OC2CCN(S(C)(=O)=O)CC2)cc1` (single isomer, unassigned) [Example 44] was 14 nM; that for `CCOC(=O)N1CCC(NC(=O)c2ccc(CN3[C@@H](C)CCC(c4ccccc4)S3(=O)=O)cc2)CC1` (stereo partly drawn) [Example 276, 4-[4-((3S)-Methyl-1,1-dioxo-6-phenyl-[1,2]thiazinan-2-ylmethyl)-benzoylamino]-piperidine-1-carboxylic acid ethyl ester] was 4440 nM; that for `CC(=O)N1CCN(c2ccc(CN3CCCCC(c4ccccc4)S3(=O)=O)cc2)CC1` (single isomer, unassigned) [Example 306, 1-{4-[4-(1,1-Dioxo-7-phenyl-[1,2]thiazepan-2-ylmethyl)-phenyl]-piperazin-1-yl}-ethanone] was 87 nM.
With `CC(=O)N1CCN(c2ccc(CN3C[C@@H](C)OCC(c4ccccc4)S3(=O)=O)c(F)c2)CC1` (single isomer, unassigned) [Example 30], the half-maximal inhibitory concentration (IC50) amounted to 107 nM.
The same measure, in the same setting: for `C[C@H]1CCC(c2ccccc2)S(=O)(=O)N1Cc1ccc(C(=O)N2CCCCC2CO)cc1` (stereo partly drawn) [Example 280, (2-Hydroxymethyl-piperidin-1-yl)-[4-((3S)-methyl-1,1-dioxo-6-phenyl-[1,2]thiazinan-2-ylmethyl)-phenyl]-methanone] the value was 2650 nM; for `CC(=O)N1CCN(c2ccc(CN3CCCCC(c4ccccc4)S3(=O)=O)c(F)c2)CC1` (single isomer, unassigned) [Example 16, 1-{4-[4-(1,1-Dioxo-7-phenyl-[1,2]thiazepan-2-ylmethyl)-3-fluoro-phenyl]-piperazin-1-yl}-ethanone], 32 nM; for `CC(=O)N1CCN(c2ccc(CN3CCCCC(c4ccccc4)S3(=O)=O)cc2F)CC1` (single isomer, unassigned) [Example 346, 1-{4-[4 (1,1-Dioxo-7-phenyl-[1,2]thiazepan-2-ylmethyl)-2-fluoro-phenyl]-piperazin-1-yl}-ethanone], 50 nM.
Still for that read-out and setting: the value for `C[C@H]1CCC(c2ccccc2)S(=O)(=O)N1Cc1ccc(N2CCn3c(n[nH]c3=O)C2)cc1F` (single isomer, unassigned) [Example 157] was 1700 nM; that for `CC[C@H]1CCC(c2ccccc2)S(=O)(=O)N1Cc1ccc(N2CCC(n3cnnc3)CC2)cc1F` (single isomer, unassigned) [Example 229] was 168 nM; that for `CC(=O)N1CCN(c2ccc(CN3[C@@H](C)CCC(c4ccc(C)cc4)S3(=O)=O)c(F)c2)CC1` (single isomer, unassigned) [Example 184] was 98 nM.
Regarding `C[C@H]1CCC(c2ccccc2)S(=O)(=O)N1Cc1ccc(N2CCC(C#N)CC2)cc1F` (single isomer, unassigned) [Example 87], the IC50 was found to be 200 nM.
With `C[C@H]1CCC(c2ccccc2)S(=O)(=O)N1Cc1ccc(N2CCC(c3ccn[nH]3)CC2)cc1F` (single isomer, unassigned) [Example 212], the IC50 came out at 16 nM.
With `C[C@H]1CCC(c2ccccc2)S(=O)(=O)N1Cc1ccc(N2CCC(c3nnc[nH]3)CC2)cc1F` (single isomer, unassigned) [Example 226], the 50% inhibitory concentration (IC50) stood at 281 nM.
Same read-out and setting: for `CC(=O)N1CCN(c2ccc(CN3[C@@H](C)CCC(c4ccccc4F)S3(=O)=O)c(F)c2)CC1` (single isomer, unassigned) [Example 117] the value was 3 nM.
Same read-out and setting: for `CS(=O)(=O)N1CCC(Oc2ccc(CN3CCCC(c4ccccc4)S3(=O)=O)c(F)c2)CC1` (single isomer, unassigned) [Example 3] the value was 86 nM; for `O=C(CO)N1CCN(c2ccc(CN3CCCCC(c4ccccc4)S3(=O)=O)c(F)c2)CC1` (single isomer, unassigned) [Example 308, 1-{4-[4-(1,1-Dioxo-7-phenyl-[1,2]thiazepan-2-ylmethyl)-3-fluoro-phenyl]-piperazin-1-yl}-2-hydroxy-ethanone], 29 nM.
`CC[C@H]1CCC(c2ccccc2)S(=O)(=O)N1Cc1ccc(N2CCN(C(C)=O)CC2)cc1F` (single isomer, unassigned) [Example 195]: the IC50 turned out to be 73 nM.
Same read-out and setting: for `CC(=O)N1CCN(c2cnc(CN3[C@@H](C)CCC(c4ccccc4)S3(=O)=O)cn2)CC1` (single isomer, unassigned) [Example 179] the value was 942 nM; for `CO[C@@H](C)C(=O)N1CCN(c2ccc(CN3[C@@H](C)CCC(c4ccccc4)S3(=O)=O)c(F)c2)CC1` (single isomer, unassigned) [Example 77], 138 nM; for `C[C@H]1CCC(c2ccccc2)S(=O)(=O)N1Cc1ccc(N2CCn3cncc3C2)cc1F` (single isomer, unassigned) [Example 155], 175 nM.
Still for that read-out and setting: for `C[C@@H]1CCC(c2ccccc2)S(=O)(=O)N1Cc1ccc(OC2CCN(S(C)(=O)=O)CC2)nc1` (single isomer, unassigned) [Example 50] the value was 168 nM; for `COc1ccccc1C1CC[C@H](C)N(Cc2ccc(N3CCN(C(C)=O)CC3)cc2F)S1(=O)=O` (single isomer, unassigned) [Example 224], 62 nM.

Staying with this assay, now noted: read-out: RORc IC50.
In the case of `CC(=O)N1CCN(c2ccc(CN3[C@@H](C)CCC(c4ccccc4)S3(=O)=O)c(F)c2)[C@@H](C(N)=O)C1` (stereo partly drawn) [Example 433, (R)-4-Acetyl-1-[3-fluoro-4-((3S)-methyl-1,1-dioxo-6-phenyl-[1,2]thiazinan-2-ylmethyl)-phenyl]-piperazine-2-carboxylic acid amide], the 50% inhibitory concentration (IC50) was determined as 228 nM.

Values taken from patent publication US9115101B2 (Genentech, Inc., priority 2012, dated 2015).
